Here are results for three compounds from US10835624B2, “Compounds for imaging Tau protein aggregates” (AC IMMUNE S.A., priority 2016, dated 2020).

Each structure is given as a SMILES string.

For one data set, the target named is Tau (Homo sapiens, UniProt P10636). Kind of data set: Tau competition binding in human AD brain homogenate with 18F-labeled Tau binder. Set-up: High affinity to Tau (IC50 in AD brain homogenate): key: −: poor; ∘: moderate; +: good; ++: very good; +++: excellent. To be noted: determined with non-radioactive F-1, F-2, F-3a; for IC50: human AD brain homogenate, read-out: IC50 for tau binding in AD brain homogenate. As for the experimental part:
(§1) 20 μg of human Alzheimer disease brain homogenate was incubated with a dilution series of each test compound (1000 to 0.06 nM) in the presence of 800 Bq of ^18F-labeled Tau binder. The samples were shaken at 110 rpm for 45 min at 37° C. Samples were then filtered through GF/B 96 well filter plates and washed twice with 300 μL assay buffer (PBS containing 0.1% BSA and 2% DMSO). Thereafter, filter plates were sealed and a Fuji Film Imaging Plate (BAS-SR2025) was placed on top. The imaging plate was analyzed after overnight exposition using a Fuji Film BAS-5000. Non-specific signal was determined with samples containing ^18F-labeled Tau-reference binder in the presence of assay buffer without brain substrate and competitor. […] The unblocked ^18F-labeled Tau-binder signal was defined as total binding. IC50 values were calculated by Prism V6 (GraphPad) setting total binding to 100%.

Data set [1] addresses T1, MAO A (Mus musculus, UniProt Q64133).
T1 construct: from tissue; host or cells: whole mouse brain homogenate
T1 sequence (Q64133 1-526): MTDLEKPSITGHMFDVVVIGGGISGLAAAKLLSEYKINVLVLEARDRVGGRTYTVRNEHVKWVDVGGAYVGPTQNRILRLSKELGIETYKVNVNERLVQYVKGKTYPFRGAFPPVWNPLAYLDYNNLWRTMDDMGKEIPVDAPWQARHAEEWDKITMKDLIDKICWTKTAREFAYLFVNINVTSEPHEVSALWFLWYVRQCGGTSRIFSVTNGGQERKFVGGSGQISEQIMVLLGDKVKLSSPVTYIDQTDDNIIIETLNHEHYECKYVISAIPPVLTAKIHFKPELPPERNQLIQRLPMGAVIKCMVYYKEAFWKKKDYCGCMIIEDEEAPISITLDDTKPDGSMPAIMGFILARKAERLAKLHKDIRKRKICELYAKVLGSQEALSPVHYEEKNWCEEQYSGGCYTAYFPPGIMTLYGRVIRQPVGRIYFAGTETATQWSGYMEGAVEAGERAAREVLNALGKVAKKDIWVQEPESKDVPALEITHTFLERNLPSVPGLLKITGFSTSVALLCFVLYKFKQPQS
Put plainly: MAO A 18F-FEH competition assay in mouse brain homogenate. The format is binding. Set-up: Low affinity to MAO A (IC50 in mouse brain homogenate): key to the marks not given beside the values. To be noted: for IC50: 18F-FEH competition, read-out: IC50 MAO A in mouse brain homogenate.

The target of data set [2] is T2, MAO A (Homo sapiens, UniProt P21397).
T2 construct: 20 μg of human brain homogenate (without AD pathology); from tissue; host or cells: human brain homogenate without AD pathology (healthy control)
T2 sequence (P21397 1-527): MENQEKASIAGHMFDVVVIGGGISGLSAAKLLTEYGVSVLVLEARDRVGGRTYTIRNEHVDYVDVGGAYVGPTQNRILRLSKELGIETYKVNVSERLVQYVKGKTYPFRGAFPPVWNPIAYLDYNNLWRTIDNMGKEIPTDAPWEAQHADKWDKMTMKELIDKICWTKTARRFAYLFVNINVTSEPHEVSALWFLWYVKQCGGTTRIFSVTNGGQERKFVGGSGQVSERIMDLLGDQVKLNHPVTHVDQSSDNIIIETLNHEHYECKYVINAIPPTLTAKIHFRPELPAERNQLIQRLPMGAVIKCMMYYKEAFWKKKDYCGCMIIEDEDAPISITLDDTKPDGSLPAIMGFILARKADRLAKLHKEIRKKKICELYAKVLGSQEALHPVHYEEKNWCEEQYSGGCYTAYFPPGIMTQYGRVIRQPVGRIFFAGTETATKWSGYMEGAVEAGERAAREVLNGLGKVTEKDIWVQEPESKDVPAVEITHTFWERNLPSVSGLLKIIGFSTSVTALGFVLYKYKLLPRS
Kind of data set: MAO A FEH competition assay in human HC brain homogenate. Set-up: Low affinity to MAO A (IC50 in HC homogenate): key: −: poor; ∘: moderate; +: good; ++: very good; +++: excellent. As to conditions: for IC50: human healthy control brain homogenate, FEH competition. The format is binding. The procedure: as §1, with “human” for “human Alzheimer disease”, “homogenate (without AD pathology)” for “homogenate”, “MAO-A binder ([^18F]fluoroethyl harmine, FEH).” for “Tau binder.”, “FEH” for “Tau-reference binder”, “FEH” for “Tau-binder”

Data set [3] in a line: PK studies in healthy mice (PET). As to Good brain uptake: key: −: poor; ∘: moderate; +: good; ++: very good; +++: excellent. As to Low or minor de-fluorination: key: −: poor; ∘: moderate; +: good; ++: very good; +++: excellent. As to Low retention in healthy brain: key: −: poor; ∘: moderate; +: good; ++: very good; +++: excellent. The format is in vivo, NMRI mice. To be noted: for Low retention in healthy brain / Good brain uptake / Low or minor de-fluorination / Fast washout from healthy brain: grade; for Low retention in healthy brain: healthy mice 60 min after iv injection; for Good brain uptake: healthy mice after iv injection; for Low or minor de-fluorination: bone uptake in healthy mice at 60 min; for Fast washout from healthy brain: healthy mice; for De-fluorination in mice (in words): mouse, in vivo. Set-up: Good brain uptake / Fast washout from healthy brain: key: −: poor; ∘: moderate; +: good; ++: very good; +++: excellent. The procedure:
NMRI mice (weight range 25-35 g) were injected intravenously with the ^18F-labeled compounds. Up to 150 μL of 1×PBS solution with 10%-15% EtOH or dilution medium ([…]) containing the ^18F-labeled compound (2-10 MBq) were injected. Anesthesia with isoflurane was induced before injection of the tracer and maintained during the image acquisition period. PET scans were performed using a SIEMENS INVEON small animal PET/CT scanner (Siemens, Knoxville, Tenn.). PET acquisition was started immediately before the radioactive dose was injected into the animal through the tail vein. Images were generated as dynamic scans for 60 minutes.
The peak uptake in the brain was set to 100% and washout curves were generated to evaluate the clearance of the activity from the normal brain (FIG. 2).

Setting [4] is: grade, non-radioactive derivatives.

Tau, sequence (P10636 623-708 limits assumed): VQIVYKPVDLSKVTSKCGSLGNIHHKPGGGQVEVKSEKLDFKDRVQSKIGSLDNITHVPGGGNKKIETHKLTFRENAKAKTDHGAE

As for `[18F]c1ccc(-c2ccc3c(c2)[nH]c2ccncc23)cn1` [^18F-1], the concentration for half-maximal inhibition (IC50) (usually the midpoint of a concentration-inhibition curve) is below 2 nM at Tau, 22 nM on MAO A [1] (non-radioactive derivatives) and 5 nM at MAO A [2]. Also, the “Low retention in healthy brain” value in data set [3] is listed as “−”. In addition, in data set [3], the Good brain uptake result is reported as “++”.
On to `[18F]c1ccc(-c2ccc3c(n2)[nH]c2ccncc23)cn1` [^18F-2], for which the 50% inhibitory concentration (IC50) on Tau was below 2 nM. The IC50 on MAO A [1] (non-radioactive derivatives) is 475 nM. In addition, the IC50 on MAO A [2] was determined as 100 nM. Moreover, in data set [3], the “Low or minor de-fluorination” value is given as “−”, the “Fast washout from healthy brain” value is on record as “++”, the Good brain uptake result was “++” and the “De-fluorination in mice (in words)” value was “De-fluorination in mice was found”.
Take `[18F]c1cc(-c2ccc3c(n2)[nH]c2ccncc23)ccn1` [^18F-3a]: the “High affinity to Tau (IC50 in AD brain homogenate)” value on Tau (grade) is listed as “+++”. Further, on Tau, the half-inhibitory concentration (IC50) was below 2 nM. Besides, the IC50 at MAO A [1] (non-radioactive derivatives) was determined as 1400 nM. At MAO A [1] (setting [4]), the “Low affinity to MAO A (IC50 in mouse brain homogenate)” value is given as “+++”. Also, on MAO A [1] (whole mouse brain homogenate), the “Fold higher MAO A IC50 than compound 18F-1” value is recorded as 64 fold and the “Fold higher MAO A IC50 than compound 18F-2” value turned out to be 3 fold. Further, at MAO A [2] (HC brain homogenate), the “Fold higher MAO A IC50 than compound 18F-1” value was 220 fold and the “Fold higher MAO A IC50 than compound 18F-2” value came out at 11 fold. Moreover, the “Low affinity to MAO A (IC50 in HC homogenate)” value on MAO A [2] (setting [4]) is given as “+++”. On MAO A [2], this compound showed a half-inhibitory concentration (IC50) of 1100 nM. Further, in data set [3], the “Low or minor de-fluorination” value is “+++”, the “Fast washout from healthy brain” value was “++”, the “Low retention in healthy brain” value is on record as “++” and the Good brain uptake entry is given as “++”. In addition, the “De-fluorination in mice (in words)” value in data set [3] was “No de-fluorination”. Also, in data set [3] (mice), the “Fold faster washout from healthy brain than 18F-1” value is recorded as 1.6 fold, the “Fold lower long-term retention in healthy brain than 18F-1” value turned out to be 2.7 fold and the “Fold lower long-term retention in healthy brain than 18F-2” value is listed as 2 fold.
